Reference: the NIST ThermoML archive (doi:10.1016/j.jct.2006.06.008)

Assays:
[1] = 101 kPa, Liquid
[2] = xn = mol fraction of the nth substance listed; conditions: 101 kPa, Liquid

CCO [ethanol]
[1]
Conditions | mass density [kg/m3] | speed of sound [m/s] | viscosity [mPa·s]
293.15 K | 789.75 | 1162 | 1.187
298.15 K | 785.46 | 1145 | 1.082
303.15 K | 781.15 | 1128 | 0.987

CCCCO [butan-1-ol]
[1]
Conditions | mass density [kg/m3] | speed of sound [m/s] | viscosity [mPa·s]
293.15 K | 809.5 | 1257 | 2.941
298.15 K | 805.75 | 1240 | 2.571
303.15 K | 801.8 | 1224 | 2.255

C1CCCCC1 [cyclohexane]
[1]
Conditions | mass density [kg/m3] | speed of sound [m/s] | viscosity [mPa·s]
293.15 K | 778.62 | 1279 | 0.968
298.15 K | 773.92 | 1254 | 0.887
303.15 K | 769.19 | 1230 | 0.816

CCCO [propan-1-ol]
[1]
Conditions | mass density [kg/m3] | speed of sound [m/s] | viscosity [mPa·s]
293.15 K | 803.59 | 1223 | 2.159
298.15 K | 799.58 | 1206 | 1.915
303.15 K | 795.55 | 1189 | 1.713

C1CCCC1 [cyclopentane]
[1]
Conditions | mass density [kg/m3] | speed of sound [m/s] | viscosity [mPa·s]
293.15 K | 744.52 | 1232 | 0.439
298.15 K | 739.55 | 1206 | 0.416
303.15 K | 734.54 | 1180 | 0.394

C1CCCC1 [cyclopentane] + CCO
[2]
Conditions | mass density, 293.15 K [kg/m3] | mass density, 298.15 K [kg/m3] | mass density, 303.15 K [kg/m3] | speed of sound, 293.15 K [m/s] | speed of sound, 298.15 K [m/s] | speed of sound, 303.15 K [m/s] | viscosity, 293.15 K [mPa·s] | viscosity, 298.15 K [mPa·s] | viscosity, 303.15 K [mPa·s]
x1 = 0.0488 | 784.97 | 780.62 | 776.23 | 1157 | 1139 | 1122 | 1.148 | 1.047 | 0.956
x1 = 0.1011 | 780.67 | 776.25 | 771.78 | 1155 | 1137 | 1118 | 1.07 | 0.977 | 0.896
x1 = 0.1932 | 774.13 | 769.58 | 764.99 | 1154 | 1135 | 1116 | 0.955 | 0.875 | 0.806
x1 = 0.2926 | 768.22 | 763.55 | 758.83 | 1157 | 1136 | 1116 | 0.822 | 0.756 | 0.696
x1 = 0.3897 | 763.12 | 758.34 | 753.5 | 1162 | 1140 | 1118 | 0.735 | 0.679 | 0.628
x1 = 0.489 | 758.81 | 753.94 | 749.01 | 1168 | 1146 | 1123 | 0.659 | 0.609 | 0.564
x1 = 0.5973 | 754.7 | 749.75 | 744.74 | 1177 | 1153 | 1130 | 0.582 | 0.54 | 0.502
x1 = 0.7012 | 751.29 | 746.28 | 741.2 | 1186 | 1162 | 1137 | 0.521 | 0.487 | 0.456
x1 = 0.7992 | 748.53 | 743.48 | 738.38 | 1196 | 1171 | 1146 | 0.475 | 0.446 | 0.42
x1 = 0.8886 | 746.41 | 741.36 | 736.25 | 1208 | 1182 | 1156 | 0.448 | 0.423 | 0.4
x1 = 0.9495 | 745.36 | 740.33 | 735.23 | 1217 | 1192 | 1166 | 0.44 | 0.417 | 0.394
x1 = 1 | 744.52 | 739.55 | 734.54 | 1232 | 1206 | 1180 | 0.439 | 0.416 | 0.394

CCCO [propan-1-ol] + C1CCCCC1
[2], x2 = 0
Conditions | mass density [kg/m3] | speed of sound [m/s] | viscosity [mPa·s]
293.15 K | 803.59 | 1223 | 2.159
298.15 K | 799.58 | 1206 | 1.915
303.15 K | 795.55 | 1189 | 1.713

CCCCO [butan-1-ol] + C1CCCCC1
[2], x2 = 0
Conditions | mass density [kg/m3] | speed of sound [m/s] | viscosity [mPa·s]
293.15 K | 809.5 | 1257 | 2.941
298.15 K | 805.75 | 1240 | 2.571
303.15 K | 801.8 | 1224 | 2.255

CCO [ethanol] + C1CCCC1
[2], x2 = 0
Conditions | mass density [kg/m3] | speed of sound [m/s] | viscosity [mPa·s]
293.15 K | 789.75 | 1162 | 1.187
298.15 K | 785.46 | 1145 | 1.082
303.15 K | 781.15 | 1128 | 0.987
